Source: patent US20220354811A1, “METHODS AND COMPOSITIONS FOR MODULATING MACROPHAGES POLARIZATION” (INSERM (INSTITUT NATIONAL DE LA SANTÉ ET DE LA RECHERCHE …, priority 2019, published 2022)
Residues, ends and D or L forms follow the SMILES beside them. *: point of attachment. Cbz = O=C(OCc1ccccc1)*; CH2F = FC*

Assays:
[1] = molecular target: caspase-8 (Homo sapiens, UniProt Q14790); assay: Recombinant caspase-8 activity in vitro (Ac-IETD-AMC substrate); type: biochemical; set-up: using active recombinant proteins of caspase-8 and caspase-3; purchased Enzo life sciences ALX-201-062; conditions: recombinant caspase-8, Ac-IETD-AMC
Text: FIG. 4. […] (A) Measures of caspase-8 activity (IETD-AMC). IETD-CHO treatment is used as positive control in the in vitro assay. The results are expressed as A.U./min and represent the mean of 3 independent experiments realized in duplicate (B) Measures of caspase-3 activity (DEVD-AMC). DEVD-CHO is used as positive control in the in vitro assay. The results are expressed as A.U./min and represent the mean of 3 independent experiments realized in duplicate. Human CSF-1 was purchased from Miltenyi (130-096-493). […] Mouse caspase-8 was from R&D Systems (AF705). HRP-conjugated rabbit anti-goat was purchased from Dako ([…]) and HRP-conjugated goat anti-rabbit was from Cell Signaling (5127). Active recombinant caspase-8 (ALX-201-062) and -3 (ALX-201-059) were from Enzo life sciences. […] Each assay (in triplicate) was performed with 10 μg of protein prepared from control or stimulated cells. […] Enzyme activities were expressed in arbitrary units (A.U.) per min and per mg of proteins. The same protocol was used with 0.25 units of active recombinant caspase-8 (Enzo, ALX-201-062) or -3 (Enzo, ALX-201-059) in each triplicate.

[2] = tested on: human primary monocytes; conditions: literature (Jacquel et al., Blood 2009, Sci Reports 2018); cited from earlier work

caspase-8, sequence (Q14790 217-374 limits assumed): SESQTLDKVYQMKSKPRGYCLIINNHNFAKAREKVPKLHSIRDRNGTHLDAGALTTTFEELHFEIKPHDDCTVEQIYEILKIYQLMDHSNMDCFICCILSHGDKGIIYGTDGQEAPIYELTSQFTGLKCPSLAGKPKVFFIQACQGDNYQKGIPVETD
caspase-8, sequence (Q14790 385-479 limits assumed): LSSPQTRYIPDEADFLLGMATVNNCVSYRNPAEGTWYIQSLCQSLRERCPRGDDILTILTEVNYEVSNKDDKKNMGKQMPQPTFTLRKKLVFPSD

| SMILES | IC50 [1] [µM] | effect on CSF-1-induced monocyte differentiation [2] |
| --- | --- | --- |
| CC[C@H](C)[C@H](NC(C)=O)C(=O)N[C@@H](CCC(=O)O)C(=O)N[C@H](C(=O)N[C@H](C=O)CC(=O)O)[C@@H](C)O [Ac-IETD-CHO] (Ac-IETD-aldehyde) | 0.015 | – |
| COC(=O)C[C@H](NC(=O)[C@H](C)NC(=O)[C@@H](NC(=O)OCc1ccccc1)C(C)C)C(=O)CF [z-VAD-fmk] (Cbz-Val-Ala-Asp(OMe)-CH2F) | – | inhibits |
